Measurements reported in article PMC7139549, “TLD1433 Photosensitizer Inhibits Conjunctival Melanoma Cells in Zebrafish Ectopic and Orthotopic Tumour Models” (Cancers, 2020).

Assays:
[1] = test system: CRMM1 cells injected behind the eye (RO) of zebrafish embryos; experiment: Zebrafish orthotopic CM tumour model, CRMM1; type: in vivo, Zebrafish (Danio rerio); details: for PI (Fluorescence Intensity) / PI (Tumour Area) / Relative Tumour Burden as Measured by Fluorescence Intensity / Tumour Area: CRMM1, Orthotopic Model; for PI (Fluorescence Intensity) / PI (Tumour Area): 0 vs 114 J.cm^−2
Procedure: (§1) The zebrafish ectopic conjunctival melanoma tumour model has been described previously. In this model, around 200 fluorescent CM cells are injected into the Duct of Cuvier at 2 dpf, and then disseminate through the blood circulation and grow in the head and tail. To establish the orthotopic tumour model, around 100 red, (td)Tomato fluorescent CRMM1 or CRMM2 cells were injected RO at 2 dpf into tg(Fli:GFP/Casper), endothelial reporter transgenic zebrafish with green fluorescent vasculature and examined by fluorescent microscopy at day 1 and 4 after engraftment (Figure 6A). Tumour expansion at the injection site was measured as fluorescence intensity and tumour area.
(§2) For cancer cell injection, two days post-fertilization (dpf), dechorionated zebrafish embryos were anaesthetized with 0.003% tricaine (Sigma) and plated on a 10 cm Petri dish covered with 1.5% of solidified agarose. CRMM1 and CRMM2 cells were suspended in PBS containing 2% polyvinylpyrrolidone (PVP; Sigma-Aldrich) with a concentration of 50,000 cells/µL and loaded into borosilicate glass capillary needles (1 mm O.D. × 0.78 mm I.D.; Harvard Apparatus). In the ectopic model, 200 (td)Tomato fluorescent CM cells were injected into the Duct of Cuvier or at 2 dpf, which led to dissemination through the blood circulation and outgrowth in the head and tail. In orthotopic tumour model, 100 (td)Tomato fluorescent CRMM1 or CRMM2 cells were injected RO in 2 dpf embryos using a Pneumatic Picopump and a manipulator (WPI). After injection, the embryos were incubated in a 34 °C incubator. Images were acquired at 1-, 2- and 4-days post injection (dpi) with a Leica M165 FC stereo fluorescence microscope. Tumor growth was quantified by calculating the total fluorescence intensity and area with the ZF4 pixel counting program (Leiden). Each experiment was performed at least 3 times with a group size of >30 embryos.
(§3) Fluorescent CRMM1 and CRMM2 cells were injected at 2 dpf into the Duct of Cuvier (ectopic model) and behind the eye (orthotopic model) and TLD1433 was delivered by WA, IV and RO administration with or without a light treatment as described in 4.8. For the WA administration, the 4.6 nM TLD1433 solution was added to the tumour cells injected zebrafish at 2.5, 3.5, 4.5, 5.5 dpf and maintained for 12 h. At 3, 4, 5, 6 dpf, the fish water was refreshed, and after 1 h, embryos were exposed to green light for 90 min (21 mW/cm^2, 114 J/cm^2, 520 nm). For the IV and RO administration, 1 nL of 2.3 mM TLD1433 solution was injected via the dorsal vein or the RO site at 3, 4, 5, 6 dpf. After 1 h interval, the embryos were exposed to green light for 90 min (21 mW/cm^2, 114 J/cm^2, 520 nm). After treatment, the embryos images were acquired with a Leica M165 FC stereo fluorescence microscope. Tumor growth was quantified by calculating the total fluorescence intensity and area with the ZF4 pixel counting program (Leiden). Each experiment was performed at least 3 times with a group size of >30 embryos.

[2] = test system: CRMM1 cells injected into the Duct of Cuvier of zebrafish embryos; experiment: Zebrafish ectopic CM tumour model, CRMM1; type: in vivo, Zebrafish (Danio rerio); details: for PI (Fluorescence Intensity) / PI (Tumour Area) / Relative Tumour Burden as Measured by Fluorescence Intensity / Tumour Area: CRMM1, Ectopic Model; for PI (Fluorescence Intensity) / PI (Tumour Area): 0 vs 114 J.cm^−2
Procedure: as §1, §2, §3

[3] = Intravenous (1 nL of 2.3 mM), Light Dose 0 J.cm^−2, vs control dark group (100%)
[4] = Intravenous (1 nL of 2.3 mM), Light Dose 114 J.cm^−2, vs control dark group (100%)
[5] = Retro orbital (1 nL of 2.3 mM), Light dose 0 J.cm^−2, vs control dark group (100%)
[6] = Retro orbital (1 nL of 2.3 mM), Light dose 114 J.cm^−2, vs control dark group (100%)
[7] = Retro-orbital (1 nL of 2.3 mM), Light Dose 0 J.cm^−2, vs control dark group (100%)
[8] = Retro-orbital (1 nL of 2.3 mM), Light Dose 114 J.cm^−2, vs control dark group (100%)
[9] = Water (4.6 nM), Light dose 0 J.cm^−2, vs control dark group (100%)
[10] = Water (4.6 nM), Light dose 114 J.cm^−2, vs control dark group (100%)
[11] = CRMM1, orthotopic model, RO 2.3 mM, green light 114 J.cm^−2
[12] = CRMM1, ectopic model, IV 2.3 mM, light 114 J.cm^−2
[13] = CRMM1, ectopic model, RO 2.3 mM, green light 114 J.cm^−2

Cc1ccnc(-c2cc(C)ccn2)c1.Cc1ccnc(-c2cc(C)ccn2)c1.[Cl-].[Cl-].[Ru+2].c1csc(-c2ccc(-c3ccc(-c4nc5c6cccnc6c6ncccc6c5[nH]4)s3)s2)c1 [TLD1433]
PI (Fluorescence Intensity) ([1]; Intravenous (1 nL of 2.3 mM)): 0.82 | PI (Tumour Area) ([1]; Intravenous (1 nL of 2.3 mM)): 0.87 | Relative Tumour Burden as Measured by Fluorescence Intensity [1, 3]: 91% | Tumour Area [1, 3]: 109% | Relative Tumour Burden as Measured by Fluorescence Intensity [1, 4]: 111% | Tumour Area [1, 4]: 126% | PI (Tumour Area) ([1]; Retro orbital (1 nL of 2.3 mM)): 4.1 | Tumour Area [1, 5]: 125% | Tumour Area [1, 6]: 31% | PI (Fluorescence Intensity) ([1]; Retro-orbital (1 nL of 2.3 mM)): 1.8 | Relative Tumour Burden as Measured by Fluorescence Intensity [1, 7]: 120% | Relative Tumour Burden as Measured by Fluorescence Intensity [1, 8]: 65% | PI (Fluorescence Intensity) ([1]; Water (4.6 nM)): 1.0 | PI (Tumour Area) ([1]; Water (4.6 nM)): 1.0 | Relative Tumour Burden as Measured by Fluorescence Intensity [1, 9]: 96% | Tumour Area [1, 9]: 90% | Relative Tumour Burden as Measured by Fluorescence Intensity [1, 10]: 96% | Tumour Area [1, 10]: 89% | diminished fluorescence intensity [1, 11]: 35% | diminished tumour area [1, 11]: 69% | effect on tumour burden (in words) ([1]; CRMM1, orthotopic model, WA at the MTD (4.6 nM), light 114 J.cm^−2): did not inhibit tumour burden | PI (Fluorescence Intensity) ([2]; Intravenous (1 nL of 2.3 mM)): 1.6 | PI (Tumour Area) ([2]; Intravenous (1 nL of 2.3 mM)): 2.2 | Relative Tumour Burden as Measured by Fluorescence Intensity [2, 3]: 94% | Tumour Area [2, 3]: 102% | Relative Tumour Burden as Measured by Fluorescence Intensity [2, 4]: 59% | Tumour Area [2, 4]: 46% | PI (Tumour Area) ([2]; Retro orbital (1 nL of 2.3 mM)): 2.4 | Tumour Area [2, 5]: 85% | Tumour Area [2, 6]: 36% | PI (Fluorescence Intensity) ([2]; Retro-orbital (1 nL of 2.3 mM)): 1.6 | Relative Tumour Burden as Measured by Fluorescence Intensity [2, 7]: 85% | Relative Tumour Burden as Measured by Fluorescence Intensity [2, 8]: 53% | PI (Fluorescence Intensity) ([2]; Water (4.6 nM)): 1.0 | PI (Tumour Area) ([2]; Water (4.6 nM)): 1.0 | Relative Tumour Burden as Measured by Fluorescence Intensity [2, 9]: 91% | Tumour Area [2, 9]: 103% | Relative Tumour Burden as Measured by Fluorescence Intensity [2, 10]: 89% | Tumour Area [2, 10]: 99% | inhibition of tumour area [2, 12]: 54% | inhibition of tumour fluorescence intensity [2, 12]: 41% | diminished fluorescence intensity [2, 13]: 47% | diminished tumour area [2, 13]: 64% | effect on tumour burden (in words) ([2]; CRMM1, ectopic model, WA at the MTD (4.6 nM), light 114 J.cm^−2): did not inhibit tumour burden
